Assay results from patent publication US12433900B2, “Intravitreal corticosteroid extended release implant and methods of use” (Eyedea Bio, LLC, priority 2021, dated 2025).

Assay: Calculated Octanol Solubility Index (OSI) and Topological Polar Surface Area (TPSA) of the API
Conditions: calculated using the log P and maximal aqueous solubility
Excerpt: The interactions between API and complexation agent and/or dispersal medium can be predicted based on the Octanol Solubility Index (OSI) and Topological Polar Surface Area (TPSA) of the API. TPSA is a calculated measure of a molecule's polarity based on the number of polar atoms contained in the molecule. OSI is a measure of compound lipophilicity and can be calculated using the log P and maximal aqueous solubility of the compound by the formula:

| Structure (SMILES) | OSI (Octanol Solubility Index) |
| --- | --- |
| C[C@@H]1C[C@H]2[C@@H]3CCC4=CC(=O)C=C[C@]4(C)[C@@]3(F)[C@@H](O)C[C@]2(C)[C@@]1(O)C(=O)CO [dexamethasone free base, 9α-fluoro-11β,17α,21-trihydroxy-16α-methylpregna-1,4-diene-3,20-dione] | 3.85 |
| C[C@@H]1C[C@H]2[C@@H]3CCC4=CC(=O)C=C[C@]4(C)[C@@]3(F)[C@@H](O)C[C@]2(C)[C@@]1(O)C(=O)COP(=O)(O)O [dexamethasone phosphate] | 3.71 |
| CC1(C)O[C@@H]2C[C@H]3[C@@H]4C[C@H](F)C5=CC(=O)C=C[C@]5(C)[C@@]4(F)[C@@H](O)C[C@]3(C)[C@]2(C(=O)CO)O1 [fluocinolone acetonide, 6α,9α-difluoro-11β,16α,17α,21-tetrahydroxypregna-1,4-diene-3,20-dione cyclic 16α,17α-acetal with acetone] | 3.48 |
